# Columns and labels:
# Assay type in all cases: in vivo
# [1] = tested on: redroot pigweed (Amaranthus retroflexus, AMARE); assay: Pre-emerge test, greenhouse herbicide activity screening; conditions: pre-emerge, 14 days after application, rating scale 0-100
# Procedure, shortened: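 Compounds in acetone were track-sprayed at 187 l/ha, 15–1000 g ai/ha, onto sandy loam pots. Pre-emerge seeds were sown one day before spraying, with surface watering afterwards. Post-emerge plants were at the 2–3 leaf stage and sprayed with 0.25% v/v non-ionic surfactant. Injury was rated 0–100 at 14 days.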
# [2] = tested on: barnyardgrass (Echinochloa crus-galli, ECHCG); assay: as above; conditions: pre-emerge, 14 days after application, rating scale 0-100
# Procedure, shortened: (§1)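 Plants grown in 10 cm pots of sandy loam mix received acetone-dissolved compounds through a moving flat-fan nozzle. Doses ranged from 15 to 1000 g ai/ha. Pre-emerge pots were seeded one day earlier, post-emerge pots 8–21 days earlier. Fourteen days on, each pot was graded 0–100 for damage.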
# [3] = tested on: common ragweed (Ambrosia artemisizfolia L., AMBEL); assay: as above; conditions: pre-emerge, 14 days after application, rating scale 0-100
# Procedure, shortened: as §1
# [4] = tested on: green foxtail (Setaria viridis, SETVI); assay: as above; conditions: pre-emerge, 14 days after application, rating scale 0-100
# Procedure, shortened: as §1
# [5] = tested on: ivyleaf morningglory (Ipomoea hederacea, IPOHE); assay: as above; conditions: pre-emerge, 14 days after application, rating scale 0-100
# Procedure, shortened: as §1
# [6] = tested on: johnsongrass (Sorghum halepense, SORHA); assay: as above; conditions: pre-emerge, 14 days after application, rating scale 0-100
# Procedure, shortened: as §1
# [7] = tested on: lambsquarters (Chenopodium album, CHEAL); assay: as above; conditions: pre-emerge, 14 days after application, rating scale 0-100
# Procedure, shortened: as §1
# [8] = tested on: large crabgrass (Digitaria sanguinalis, DIGSA); assay: as above; conditions: pre-emerge, 14 days after application, rating scale 0-100
# Procedure, shortened: as §1
# [9] = tested on: sicklepod (Cassia obtusifolia, CASOB); assay: as above; conditions: pre-emerge, 14 days after application, rating scale 0-100
# Procedure, shortened: as §1
# [10] = tested on: velvetleaf (Abutilon theophrasti, ABUTH); assay: as above; conditions: pre-emerge, 14 days after application, rating scale 0-100
# Procedure, shortened: as §1
# [11] = tested on: field corn (Zea mays L., var. Dekalb 535, CORN); assay: Pre-emerge test, crop safety; conditions: pre-emerge, 14 days after application, rating scale 0-100
# Procedure, shortened: (§2)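 Visual ratings on a 0-100 scale (0 no damage, 100 all plants dead) were taken at 14 days after treatment. Rates of 15-1000 g ai/ha in acetone, 187 l/ha, were sprayed onto soil one day after planting (pre-emerge) or onto 2-3 leaf plants with 0.25% v/v surfactant (post-emerge).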
# [12] = tested on: upland rice (Oryza sp., var. Tebonnet, RICE); assay: Pre-emerge test, crop safety; conditions: pre-emerge, 14 days after application, rating scale 0-100
# Procedure, shortened: as §2
# [13] = tested on: barnyardgrass (Echinochloa crus-galli, ECHCG); assay: Post-emerge test, greenhouse herbicide activity screening; conditions: post-emerge, 14 days after application, rating scale 0-100
# Procedure, shortened: as §2
# [14] = tested on: common ragweed (Ambrosia artemisizfolia L., AMBEL); assay: as above; conditions: post-emerge, 14 days after application, rating scale 0-100
# Procedure, shortened: as §2
# [15] = tested on: green foxtail (Setaria viridis, SETVI); assay: as above; conditions: post-emerge, 14 days after application, rating scale 0-100
# Procedure, shortened: as §2
# [16] = tested on: ivyleaf morningglory (Ipomoea hederacea, IPOHE); assay: as above; conditions: post-emerge, 14 days after application, rating scale 0-100
# Procedure, shortened: as §2
# [17] = tested on: lambsquarters (Chenopodium album, CHEAL); assay: as above; conditions: post-emerge, 14 days after application, rating scale 0-100
# Procedure, shortened: as §2
# [18] = tested on: large crabgrass (Digitaria sanguinalis, DIGSA); assay: as above; conditions: post-emerge, 14 days after application, rating scale 0-100
# Procedure, shortened: as §2
# [19] = tested on: redroot pigweed (Amaranthus retroflexus, AMARE); assay: as above; conditions: post-emerge, 14 days after application
# Procedure, shortened: as §2
# [20] = tested on: sicklepod (Cassia obtusifolia, CASOB); assay: as above; conditions: post-emerge, 14 days after application, rating scale 0-100
# Procedure, shortened: as §2
# [21] = tested on: velvetleaf (Abutilon theophrasti, ABUTH); assay: as above; conditions: post-emerge, 14 days after application, rating scale 0-100
# Procedure, shortened: as §2
# [22] = tested on: field corn (Zea mays L., var. Dekalb 535, CORN); assay: Post-emerge test, crop safety; conditions: post-emerge, 14 days after application, rating scale 0-100
# Procedure, shortened: (§3)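 Each test used a mechanized track sprayer delivering 187 l/ha of acetone solution at 15–1000 g ai/ha. Post-emerge foliage at 2–3 leaves was treated with added 0.25% v/v non-ionic surfactant and bottom-watered only. Injury was assessed on day 14, where 100 means total kill.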
# [23] = tested on: upland rice (Oryza sp., var. Tebonnet, RICE); assay: Post-emerge test, crop safety; conditions: post-emerge, 14 days after application, rating scale 0-100
# Procedure, shortened: as §3
compound,measurement,setting,value
CCOC(=O)C(Cl)Cc1c(OCC)c(Cl)cc(F)c1-n1c(=O)cc(C(F)(F)F)n(C)c1=O (stereo not shown) [14-63],phytotoxicity rating AMARE,[1]; 63 g ai/ha,99
same,phytotoxicity rating AMARE,[1]; 250 g ai/ha,100
same,phytotoxicity rating ECHCG,[2]; 63 g ai/ha,0
same,phytotoxicity rating ECHCG,[2]; 250 g ai/ha,50
same,phytotoxicity rating AMBEL,[3]; 63 g ai/ha,0
same,phytotoxicity rating AMBEL,[3]; 250 g ai/ha,60
same,phytotoxicity rating SETVI,[4]; 63 g ai/ha,30
same,phytotoxicity rating SETVI,[4]; 250 g ai/ha,99
same,phytotoxicity rating IPOHE,[5]; 63 g ai/ha,0
same,phytotoxicity rating IPOHE,[5]; 250 g ai/ha,0
same,phytotoxicity rating SORHA,[6]; 63 g ai/ha,0
same,phytotoxicity rating SORHA,[6]; 250 g ai/ha,20
same,phytotoxicity rating CHEAL,[7]; 63 g ai/ha,80
same,phytotoxicity rating CHEAL,[7]; 250 g ai/ha,99
same,phytotoxicity rating DIGSA,[8]; 63 g ai/ha,70
same,phytotoxicity rating DIGSA,[8]; 250 g ai/ha,100
same,phytotoxicity rating CASOB,[9]; 63 g ai/ha,0
same,phytotoxicity rating CASOB,[9]; 250 g ai/ha,50
same,phytotoxicity rating ABUTH,[10]; 63 g ai/ha,70
same,phytotoxicity rating ABUTH,[10]; 250 g ai/ha,100
same,phytotoxicity rating CORN,[11]; 63 g ai/ha,0
same,phytotoxicity rating CORN,[11]; 250 g ai/ha,0
same,phytotoxicity rating RICE,[12]; 63 g ai/ha,0
same,phytotoxicity rating RICE,[12]; 250 g ai/ha,0
same,Post-emerge Herbicidal Activity ECHCG (phytotoxicity rating),[13]; 63 g ai/ha,100
same,Post-emerge Herbicidal Activity ECHCG (phytotoxicity rating),[13]; 250 g ai/ha,99
same,Post-emerge Herbicidal Activity AMBEL (phytotoxicity rating),[14]; 63 g ai/ha,20
same,Post-emerge Herbicidal Activity AMBEL (phytotoxicity rating),[14]; 250 g ai/ha,50
same,Post-emerge Herbicidal Activity SETVI (phytotoxicity rating),[15]; 63 g ai/ha,50
same,Post-emerge Herbicidal Activity SETVI (phytotoxicity rating),[15]; 250 g ai/ha,70
same,Post-emerge Herbicidal Activity IPOHE (phytotoxicity rating),[16]; 63 g ai/ha,70
same,Post-emerge Herbicidal Activity IPOHE (phytotoxicity rating),[16]; 250 g ai/ha,70
same,Post-emerge Herbicidal Activity CHEAL (phytotoxicity rating),[17]; 63 g ai/ha,80
same,Post-emerge Herbicidal Activity CHEAL (phytotoxicity rating),[17]; 250 g ai/ha,100
same,Post-emerge Herbicidal Activity DIGSA (phytotoxicity rating),[18]; 63 g ai/ha,40
same,Post-emerge Herbicidal Activity DIGSA (phytotoxicity rating),[18]; 250 g ai/ha,90
same,Post-emerge Herbicidal Activity AMARE (phytotoxicity rating),"[19]; 63 g ai/ha, rating scale 0-100 (0 no damage, 100 complete death)",95
same,Post-emerge Herbicidal Activity AMARE (phytotoxicity rating),"[19]; 250 g ai/ha, rating scale 0-100",100
same,Post-emerge Herbicidal Activity CASOB (phytotoxicity rating),[20]; 63 g ai/ha,95
same,Post-emerge Herbicidal Activity CASOB (phytotoxicity rating),[20]; 250 g ai/ha,100
same,Post-emerge Herbicidal Activity ABUTH (phytotoxicity rating),[21]; 63 g ai/ha,90
same,Post-emerge Herbicidal Activity ABUTH (phytotoxicity rating),[21]; 250 g ai/ha,100
same,Post-emerge Herbicidal Activity CORN (crop damage rating),[22]; 63 g ai/ha,35
same,Post-emerge Herbicidal Activity CORN (crop damage rating),[22]; 250 g ai/ha,80
same,Post-emerge Herbicidal Activity RICE (crop damage rating),[23]; 63 g ai/ha,5
same,Post-emerge Herbicidal Activity RICE (crop damage rating),[23]; 250 g ai/ha,15

# Reference: US6355799B1, “Substituted benzene compounds, process for their preparation, and herbicidal and defoliant compositions containing them” (ISK Americas Incorporated, priority 1997, dated 2002)
